Key:
Myzus persicae = Myzus persicae test (Example C), sprayed cabbage leaves; type: in vivo; conditions: alone; for pest or weed control at 0.16 g/ha / pest or weed control at 0.8 g/ha / pest or weed control at 0.032 g/ha / pest or weed control at 4 g/ha: Myzus persicae, 144 h, read-out: Kill in % after 6d; for pest or weed control at 0.16 g/ha / pest or weed control at 0.8 g/ha / pest or weed control at 0.032 g/ha / pest or weed control at 4 g/ha / Kill in % after 6d: after 6 d
Phaedon cochleariae = Phaedon cochleariae larvae test (Example E), sprayed cabbage leaves; conditions: for Kill in % after 2d: alone
Tetranychus urticae = Tetranychus urticae test (OP-resistant/spray treatment) (Example G), bean leaf disks; type: in vivo; conditions: for pest or weed control at 20 g/ha / pest or weed control at 4 g/ha / pest or weed control at 0.8 g/ha: Tetranychus urticae, foliar, 144 h, read-out: Kill in % after 6 d; for pest or weed control at 20 g/ha / pest or weed control at 4 g/ha / pest or weed control at 0.8 g/ha / Kill in % after 6d: active compound alone, after 6 d; for Kill in % after 2d: alone
Method: Tetranychus urticae Test (OP-Resistant/Spray Treatment)
After the desired period of time, the activity in % is determined.

[1] = Phaedon cochleariae, in Brassica oleracea, 144 h, read-out: Kill in % after 6d

CNC(=O)c1cc(C#N)cc(C)c1NC(=O)c1cc(Br)nn1-c1ncccc1Cl [Cyazypyr (57), Cyazypyr]
Kill in % after 1d (Myzus persicae; 4 g/ha): 5% | pest or weed control at 0.16 g/ha (Phaedon cochleariae; [1]): 0%

CC(c1ccc(C(F)(F)F)nc1)S(C)(=O)=NC#N (stereo not drawn) [II-29-29]
pest or weed control at 20 g/ha (Tetranychus urticae; 20 g/ha): 0%

CNC(=O)c1cc(Cl)cc(C)c1NC(=O)c1cc(Br)nn1-c1ncccc1Cl [Rynaxapyr (56), chlorantraniliprole]
pest or weed control at 0.16 g/ha (Myzus persicae; 0.16 g/ha): 0% | pest or weed control at 4 g/ha (Tetranychus urticae; 4 g/ha): 0%

C/C(=N\C#N)N(C)Cc1ccc(Cl)nc1 [acetamiprid (25), acetamiprid]
pest or weed control at 0.16 g/ha (Myzus persicae; 0.16 g/ha): 0% | pest or weed control at 0.8 g/ha (Tetranychus urticae; 0.8 g/ha): 0% | pest or weed control at 0.8 g/ha (Phaedon cochleariae; [1]): 0%

CNC(=O)O/N=C/C(C)(C)SC [aldicarb (108), aldicarb]
Kill in % after 1d (Myzus persicae; 4 g/ha): 30%

Cc1ccc(/N=C/N(C)/C=N/c2ccc(C)cc2C)c(C)c1 [amitraz (86), amitraz]
pest or weed control at 0.8 g/ha (Myzus persicae; 0.8 g/ha): 0% | Kill in % after 2d (Tetranychus urticae; 4 g/ha): 0% | pest or weed control at 100 g/ha (Phaedon cochleariae; [1]): 0%

CC1(C)C(C=C(Cl)Cl)C1C(=O)OC(C#N)c1ccc(F)c(Oc2ccccc2)c1 (stereo not drawn) [beta-cyfluthrin (3), betacyfluthrin]
pest or weed control at 0.16 g/ha (Myzus persicae; 0.16 g/ha): 0% | pest or weed control at 0.8 g/ha (Tetranychus urticae; 0.8 g/ha): 0% | pest or weed control at 0.8 g/ha (Phaedon cochleariae; [1]): 17%

CCOCn1c(-c2ccc(Cl)cc2)c(C#N)c(Br)c1C(F)(F)F [chlorfenapyr (92), chlorfenapyr]
pest or weed control at 0.8 g/ha (Myzus persicae; 0.8 g/ha): 0% | pest or weed control at 4 g/ha (Tetranychus urticae; 4 g/ha): 70%

CN/C(=N\[N+](=O)[O-])NCc1cnc(Cl)s1 [clothianidin (30), clothianidin]
pest or weed control at 0.032 g/ha (Myzus persicae): 0% | pest or weed control at 0.8 g/ha (Tetranychus urticae; 0.8 g/ha): 0%

CN(Cc1ccc(Cl)nc1)C1=CC(=O)OC1 [compound (100)]
pest or weed control at 0.16 g/ha (Myzus persicae; 0.16 g/ha): 0%

O=C1C=C(N(Cc2ccc(Cl)nc2)CC(F)F)CO1 [compound (101)]
pest or weed control at 0.8 g/ha (Myzus persicae; 0.8 g/ha): 50% | pest or weed control at 20 g/ha (Tetranychus urticae; 20 g/ha): 0%

Cc1cc(C)c(-n2cnc(C(F)(F)F)n2)cc1SOCC(F)(F)F [compound (106)]
pest or weed control at 4 g/ha (Myzus persicae; 4 g/ha): 0%

Cc1nn(C)c(/C(OC(=O)C(C)(C)C)=C(\C#N)c2ccc(C(C)(C)C)cc2)c1C [cyenopyrafen (71), (1E)-2-cyano-2-[4-(1,1-dimethylethyl)phenyl]-1-(1,3,4-trimethyl-1H-pyrazol-5-yl)ethenyl 2,2-dimethylpropanoate]
pest or weed control at 0.8 g/ha (Myzus persicae; 0.8 g/ha): 0%

COCCOC(=O)C(C#N)(C(=O)c1ccccc1C(F)(F)F)c1ccc(C(C)(C)C)cc1 (stereo not drawn) [cyflumetofen (72), 2-methoxyethyl alpha-cyano-alpha-[4-(1,1-dimethylethyl)phenyl]-beta-oxo-2-(trifluoromethyl)benzenepropanoate]
pest or weed control at 4 g/ha (Myzus persicae; 4 g/ha): 0% | pest or weed control at 4 g/ha (Tetranychus urticae; 4 g/ha): 80%

Nc1nc(N)nc(NC2CC2)n1 [cyromazine (43), cyromazine]
pest or weed control at 0.8 g/ha (Myzus persicae; 0.8 g/ha): 0% | pest or weed control at 20 g/ha (Tetranychus urticae; 20 g/ha): 0% | pest or weed control at 100 g/ha (Phaedon cochleariae; [1]): 0%

CC1(C)C(C=C(Br)Br)C1C(=O)OC(C#N)c1cccc(Oc2ccccc2)c1 (stereo not drawn) [deltamethrin (6), deltamethrin]
Kill in % after 1d (Myzus persicae; 0.16 g/ha): 40% | pest or weed control at 0.8 g/ha (Tetranychus urticae; 0.8 g/ha): 0% | pest or weed control at 0.8 g/ha (Phaedon cochleariae; [1]): 50%

CC(C)c1cc(Oc2ccccc2)cc(C(C)C)c1NC(=S)NC(C)(C)C [diafenthiuron (76), diafenthiuron]
pest or weed control at 0.8 g/ha (Myzus persicae; 0.8 g/ha): 0% | pest or weed control at 0.8 g/ha (Tetranychus urticae; 0.8 g/ha): 30% | pest or weed control at 20 g/ha (Phaedon cochleariae; [1]): 0%

CN/C(=N/CC1CCOC1)N[N+](=O)[O-] (stereo not drawn) [dinotefuran (29)]
Kill in % after 6d (Tetranychus urticae; 4 g/ha): 0%

O=S1OCC2C(CO1)C1(Cl)C(Cl)=C(Cl)C2(Cl)C1(Cl)Cl (stereo not drawn) [endosulfan (49), endosulfan]
pest or weed control at 4 g/ha (Myzus persicae; 4 g/ha): 0% | Kill in % after 2d (Tetranychus urticae; 100 g/ha): 0% | pest or weed control at 20 g/ha (Phaedon cochleariae; [1]): 33%

CC(C)C(C(=O)OC(C#N)c1cccc(Oc2ccccc2)c1)c1ccc(Cl)cc1 (stereo not drawn) [esfenvalerate (7), esfenvalerate]
Kill in % after 1d (Myzus persicae; 0.16 g/ha): 0% | pest or weed control at 0.8 g/ha (Tetranychus urticae; 0.8 g/ha): 0% | pest or weed control at 4 g/ha (Phaedon cochleariae; [1]): 83%

CC[S+]([O-])c1c(C#N)nn(-c2c(Cl)cc(C(F)(F)F)cc2Cl)c1N (stereo not drawn) [ethiprole (51)]
Kill in % after 6d (Tetranychus urticae; 100 g/ha): 0%

Cc1nn(C)c(Oc2ccccc2)c1C=NOCc1ccc(C(=O)OC(C)(C)C)cc1 [fenpyroximate (65), fenpyroximate]
pest or weed control at 0.8 g/ha (Myzus persicae; 0.8 g/ha): 0% | Kill in % after 2d (Tetranychus urticae; 0.8 g/ha): 10%

N#Cc1nn(-c2c(Cl)cc(C(F)(F)F)cc2Cl)c(N)c1[S+]([O-])C(F)(F)F (stereo not drawn) [fipronil (50), fipronil]
pest or weed control at 4 g/ha (Myzus persicae; 4 g/ha): 0%

N#CCNC(=O)c1cnccc1C(F)(F)F [flonicamid (89), flonicamid]
Kill in % after 2d (Tetranychus urticae; 100 g/ha): 0%

O=C(NC(=O)c1c(F)cccc1F)Nc1ccc(Oc2ccc(C(F)(F)F)cc2Cl)cc1F [flufenoxuron (38), flufenoxuron]
pest or weed control at 20 g/ha (Tetranychus urticae; 20 g/ha): 0% | pest or weed control at 4 g/ha (Phaedon cochleariae; [1]): 0%

O=[N+]([O-])/N=C1\NCCN1Cc1ccc(Cl)nc1 [imidacloprid (24), imidacloprid]
pest or weed control at 0.032 g/ha (Myzus persicae): 0% | pest or weed control at 0.8 g/ha (Tetranychus urticae; 0.8 g/ha): 0%

CNC(=O)Oc1cc(C)c(SC)c(C)c1 [methiocarb (110), methiocarb]
pest or weed control at 4 g/ha (Phaedon cochleariae; [1]): 0%

COc1cccc(C(=O)NN(C(=O)c2cc(C)cc(C)c2)C(C)(C)C)c1C [methoxyfenozide (44), methoxyfenozide]
pest or weed control at 0.8 g/ha (Myzus persicae; 0.8 g/ha): 0% | pest or weed control at 20 g/ha (Tetranychus urticae; 20 g/ha): 0%

O=C(NC(=O)c1c(F)cccc1F)Nc1ccc(OC(F)(F)C(F)OC(F)(F)F)c(Cl)c1 (stereo not drawn) [novaluron (37), novaluron]
pest or weed control at 4 g/ha (Phaedon cochleariae; [1]): 83%

CC1=NNC(=O)N(/N=C/c2cccnc2)C1 [pymetrozine (88), pymetrozine]
Kill in % after 1d (Myzus persicae; 20 g/ha): 20% | pest or weed control at 20 g/ha (Tetranychus urticae; 20 g/ha): 0% | pest or weed control at 100 g/ha (Phaedon cochleariae; [1]): 0%

FC(F)(F)c1ccc(OCCCOc2c(Cl)cc(OCC=C(Cl)Cl)cc2Cl)nc1 [pyridalyl (99)]
Kill in % after 6d (Tetranychus urticae; 20 g/ha): 0%

CC(COc1ccc(Oc2ccccc2)cc1)Oc1ccccn1 (stereo not drawn) [pyriproxifen (90), pyriproxyfen]
pest or weed control at 0.8 g/ha (Myzus persicae; 0.8 g/ha): 0% | pest or weed control at 20 g/ha (Tetranychus urticae; 20 g/ha): 0% | pest or weed control at 100 g/ha (Phaedon cochleariae; [1]): 0%

CCC(C)(C)C(=O)OC1=C(c2ccc(Cl)cc2Cl)C(=O)OC12CCCCC2 [spirodiclofen (96), spirodiclofen]
pest or weed control at 0.8 g/ha (Myzus persicae; 0.8 g/ha): 0% | pest or weed control at 100 g/ha (Phaedon cochleariae; [1]): 0%

Cc1cc(C)c(C2=C(OC(=O)CC(C)(C)C)C3(CCCC3)OC2=O)c(C)c1 [spiromesifen (97), spiromesifen]
pest or weed control at 0.8 g/ha (Myzus persicae; 0.8 g/ha): 0%

CCc1nn(C)c(C(=O)NCc2ccc(C(C)(C)C)cc2)c1Cl [tebufenpyrad (64), tebufenpyrad]
pest or weed control at 0.8 g/ha (Myzus persicae; 0.8 g/ha): 0%

N#C/N=C1\SCCN1Cc1ccc(Cl)nc1 [thiacloprid (28), thiacloprid]
pest or weed control at 0.032 g/ha (Myzus persicae): 0% | pest or weed control at 0.8 g/ha (Tetranychus urticae; 0.8 g/ha): 0% | Kill in % after 2d (Phaedon cochleariae; 4 g/ha): 0%

CN1COCN(Cc2cnc(Cl)s2)/C1=N/[N+](=O)[O-] [thiamethoxam (26), thiamethoxam]
pest or weed control at 0.032 g/ha (Myzus persicae): 0%

abamectin [abamectin (60)]
Kill in % after 1d (Myzus persicae; 20 g/ha): 5%

carbosulfan [carbosulfan (109)]
Kill in % after 1d (Myzus persicae; 4 g/ha): 0%

chlorpyrifos [chlorpyrifos (95)]
Kill in % after 6d (Myzus persicae; 0.8 g/ha): 0% | Kill in % after 6d (Tetranychus urticae; 20 g/ha): 0%

profenofos [profenofos (114)]
Kill in % after 1d (Myzus persicae; 0.8 g/ha): 0% | Kill in % after 6d (Tetranychus urticae; 20 g/ha): 0%

pyridaben [pyridaben (66)]
Kill in % after 6d (Myzus persicae; 0.8 g/ha): 0% | Kill in % after 2d (Phaedon cochleariae; 20 g/ha): 33%
